According to patent US10231954B2, “Neurodegenerative therapies” (LYTIX BIOPHARMA AS, priority 2014, dated 2019):

Legend:
Format in all cases: biochemical
MINK1 = MINK1 (Homo sapiens, UniProt Q8N4C8); assay: Kinase profiling MINK1; details: 100 micromolar inhibitor concentration, 100 is no change
Text: (§1) Any value less that 25 is considered to be highly significant inhibition.

TGFBR1 = molecular target: T1, TGFBR1 (Homo sapiens, UniProt P36897); assay: Kinase profiling TGFBR1; details: 100 micromolar inhibitor concentration, 100 is no change
T1 sequence (P36897 34-503): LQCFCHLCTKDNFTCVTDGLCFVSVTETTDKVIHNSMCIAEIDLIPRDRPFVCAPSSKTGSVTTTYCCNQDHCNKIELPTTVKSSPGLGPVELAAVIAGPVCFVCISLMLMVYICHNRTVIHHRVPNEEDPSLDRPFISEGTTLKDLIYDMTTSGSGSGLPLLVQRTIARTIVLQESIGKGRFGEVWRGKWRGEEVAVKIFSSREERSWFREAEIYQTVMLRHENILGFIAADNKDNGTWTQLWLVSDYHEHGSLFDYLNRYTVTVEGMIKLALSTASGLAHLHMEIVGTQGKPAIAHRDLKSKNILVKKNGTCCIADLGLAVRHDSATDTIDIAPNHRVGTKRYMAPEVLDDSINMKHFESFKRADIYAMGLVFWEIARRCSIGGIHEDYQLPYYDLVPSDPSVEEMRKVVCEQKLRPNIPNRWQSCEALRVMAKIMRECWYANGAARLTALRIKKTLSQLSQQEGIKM
Text: as §1

MAP4K3 = molecular target: T2, MAP4K3 (Homo sapiens, UniProt Q8IVH8); assay: Kinase profiling MAP4K3; details: 100 micromolar inhibitor concentration, 100 is no change
T2 sequence (Q8IVH8 1-894): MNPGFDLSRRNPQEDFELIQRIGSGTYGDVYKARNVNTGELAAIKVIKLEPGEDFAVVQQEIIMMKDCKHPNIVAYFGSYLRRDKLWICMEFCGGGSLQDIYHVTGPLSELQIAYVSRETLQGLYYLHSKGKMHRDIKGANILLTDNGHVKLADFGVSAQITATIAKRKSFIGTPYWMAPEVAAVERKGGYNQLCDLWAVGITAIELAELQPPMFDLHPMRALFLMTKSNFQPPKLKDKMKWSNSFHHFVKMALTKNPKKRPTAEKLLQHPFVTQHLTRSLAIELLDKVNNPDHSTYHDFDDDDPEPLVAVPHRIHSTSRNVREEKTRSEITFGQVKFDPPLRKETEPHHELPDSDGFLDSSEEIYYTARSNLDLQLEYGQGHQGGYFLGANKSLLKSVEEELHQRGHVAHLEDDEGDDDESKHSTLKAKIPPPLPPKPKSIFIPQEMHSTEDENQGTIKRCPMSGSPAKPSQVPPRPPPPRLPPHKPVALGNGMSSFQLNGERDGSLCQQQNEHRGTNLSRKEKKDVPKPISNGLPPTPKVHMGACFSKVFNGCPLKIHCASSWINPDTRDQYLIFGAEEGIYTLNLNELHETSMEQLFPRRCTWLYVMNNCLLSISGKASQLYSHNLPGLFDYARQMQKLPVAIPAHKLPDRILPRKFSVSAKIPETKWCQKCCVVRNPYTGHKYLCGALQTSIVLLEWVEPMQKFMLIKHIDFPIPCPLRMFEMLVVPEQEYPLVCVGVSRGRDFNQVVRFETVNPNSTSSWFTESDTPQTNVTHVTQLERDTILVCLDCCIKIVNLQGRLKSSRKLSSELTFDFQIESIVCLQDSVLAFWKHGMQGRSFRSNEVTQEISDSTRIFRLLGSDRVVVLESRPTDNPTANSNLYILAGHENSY
Text: as §1

AMPK = assay: Kinase profiling AMPK; details: 100 micromolar inhibitor concentration; 100 is no change
Text: as §1

HIPK3 = HIPK3 (Homo sapiens, UniProt Q9H422); assay: Kinase profiling HIPK3; details: 100 micromolar inhibitor concentration, 100 is no change
Sequence of HIPK3 (Q9H422 whole entry, species assumed): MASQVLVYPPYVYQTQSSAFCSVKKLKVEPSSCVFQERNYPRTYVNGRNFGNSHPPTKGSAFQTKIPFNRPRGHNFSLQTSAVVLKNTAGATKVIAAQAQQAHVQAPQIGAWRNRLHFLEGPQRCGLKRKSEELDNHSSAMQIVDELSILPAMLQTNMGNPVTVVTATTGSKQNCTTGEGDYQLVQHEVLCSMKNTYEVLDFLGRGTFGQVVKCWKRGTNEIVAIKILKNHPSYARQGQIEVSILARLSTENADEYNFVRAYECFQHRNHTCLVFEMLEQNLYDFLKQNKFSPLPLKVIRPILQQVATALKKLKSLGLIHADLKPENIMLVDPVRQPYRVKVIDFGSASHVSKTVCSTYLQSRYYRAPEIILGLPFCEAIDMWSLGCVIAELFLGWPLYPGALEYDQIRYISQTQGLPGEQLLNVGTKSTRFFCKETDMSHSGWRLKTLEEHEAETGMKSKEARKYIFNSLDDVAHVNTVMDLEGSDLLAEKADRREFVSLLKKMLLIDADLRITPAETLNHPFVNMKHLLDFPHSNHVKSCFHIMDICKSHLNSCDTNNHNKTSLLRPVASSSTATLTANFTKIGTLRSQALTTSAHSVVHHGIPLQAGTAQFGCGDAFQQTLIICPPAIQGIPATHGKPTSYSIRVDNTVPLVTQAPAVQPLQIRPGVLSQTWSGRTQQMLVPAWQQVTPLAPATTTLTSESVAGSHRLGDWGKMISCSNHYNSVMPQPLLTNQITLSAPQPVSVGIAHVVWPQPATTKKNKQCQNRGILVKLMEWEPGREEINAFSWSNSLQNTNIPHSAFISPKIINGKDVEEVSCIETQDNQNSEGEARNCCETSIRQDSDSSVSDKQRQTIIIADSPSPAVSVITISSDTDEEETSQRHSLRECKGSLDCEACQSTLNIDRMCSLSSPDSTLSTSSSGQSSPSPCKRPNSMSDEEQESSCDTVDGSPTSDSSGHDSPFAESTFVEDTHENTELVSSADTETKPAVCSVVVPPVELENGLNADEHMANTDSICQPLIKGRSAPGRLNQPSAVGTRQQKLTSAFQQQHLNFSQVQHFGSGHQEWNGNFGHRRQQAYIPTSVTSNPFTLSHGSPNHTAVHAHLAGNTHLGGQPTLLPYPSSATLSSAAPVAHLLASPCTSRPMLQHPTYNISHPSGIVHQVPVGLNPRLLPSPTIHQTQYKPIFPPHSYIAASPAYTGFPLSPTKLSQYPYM
Text: as §1

PHK = assay: Kinase profiling PHK; details: 100 micromolar inhibitor concentration; 100 is no change
Text: as §1

SIK2 = SIK2 (Homo sapiens, UniProt Q9H0K1); assay: Kinase profiling SIK2; details: 100 micromolar inhibitor concentration, 100 is no change
Sequence of SIK2 (Q9H0K1 whole entry, species assumed): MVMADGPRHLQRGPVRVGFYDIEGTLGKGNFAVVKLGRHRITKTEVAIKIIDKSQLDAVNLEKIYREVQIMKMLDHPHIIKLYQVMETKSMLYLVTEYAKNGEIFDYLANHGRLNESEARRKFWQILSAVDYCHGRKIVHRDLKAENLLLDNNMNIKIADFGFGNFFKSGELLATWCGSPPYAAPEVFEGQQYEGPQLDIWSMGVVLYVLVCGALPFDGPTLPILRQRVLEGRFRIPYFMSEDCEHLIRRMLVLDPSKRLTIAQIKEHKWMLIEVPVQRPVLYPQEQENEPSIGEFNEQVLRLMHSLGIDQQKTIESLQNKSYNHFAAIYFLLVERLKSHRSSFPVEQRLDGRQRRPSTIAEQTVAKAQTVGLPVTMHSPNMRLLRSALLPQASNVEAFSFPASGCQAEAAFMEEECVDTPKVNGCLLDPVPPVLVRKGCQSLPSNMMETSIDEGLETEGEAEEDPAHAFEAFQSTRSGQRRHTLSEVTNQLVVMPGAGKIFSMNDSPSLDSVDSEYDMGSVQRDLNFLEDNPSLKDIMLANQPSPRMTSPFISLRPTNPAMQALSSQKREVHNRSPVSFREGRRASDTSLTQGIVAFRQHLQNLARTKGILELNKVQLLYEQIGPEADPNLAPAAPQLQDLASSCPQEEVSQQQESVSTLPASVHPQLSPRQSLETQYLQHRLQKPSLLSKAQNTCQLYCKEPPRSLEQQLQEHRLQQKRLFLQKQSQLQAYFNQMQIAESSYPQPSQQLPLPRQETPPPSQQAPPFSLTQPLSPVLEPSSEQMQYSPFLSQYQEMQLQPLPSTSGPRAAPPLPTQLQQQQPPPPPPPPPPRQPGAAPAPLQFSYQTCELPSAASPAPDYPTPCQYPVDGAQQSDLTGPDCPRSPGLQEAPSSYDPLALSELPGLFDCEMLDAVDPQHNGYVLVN
Text: as §1

MARK1 = MARK1 (Homo sapiens, UniProt Q9P0L2); assay: Kinase profiling MARK1; details: 100 micromolar inhibitor concentration, 100 is no change
Sequence of MARK1 (Q9P0L2 whole entry, species assumed): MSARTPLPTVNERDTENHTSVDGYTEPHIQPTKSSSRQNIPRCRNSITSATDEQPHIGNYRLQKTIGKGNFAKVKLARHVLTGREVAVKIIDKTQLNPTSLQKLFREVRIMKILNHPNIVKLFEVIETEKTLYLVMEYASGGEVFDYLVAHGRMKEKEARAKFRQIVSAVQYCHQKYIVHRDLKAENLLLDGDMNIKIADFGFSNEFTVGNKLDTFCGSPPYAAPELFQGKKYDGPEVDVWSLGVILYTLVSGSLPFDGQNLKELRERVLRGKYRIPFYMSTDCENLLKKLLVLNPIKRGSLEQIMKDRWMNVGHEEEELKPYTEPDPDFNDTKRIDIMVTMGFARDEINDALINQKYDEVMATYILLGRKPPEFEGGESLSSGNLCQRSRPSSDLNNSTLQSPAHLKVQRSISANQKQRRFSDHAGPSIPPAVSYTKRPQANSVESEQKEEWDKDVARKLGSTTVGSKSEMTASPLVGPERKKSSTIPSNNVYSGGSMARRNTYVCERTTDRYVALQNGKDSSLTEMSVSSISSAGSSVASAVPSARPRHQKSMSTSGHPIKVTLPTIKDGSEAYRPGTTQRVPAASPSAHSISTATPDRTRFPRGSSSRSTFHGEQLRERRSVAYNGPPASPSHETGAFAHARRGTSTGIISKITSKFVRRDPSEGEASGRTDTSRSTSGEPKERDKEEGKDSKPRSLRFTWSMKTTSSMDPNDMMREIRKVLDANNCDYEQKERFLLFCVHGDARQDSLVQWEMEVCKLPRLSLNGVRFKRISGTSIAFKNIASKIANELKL
Text: as §1

YES1 = YES1 (Homo sapiens, UniProt P07947); assay: Kinase profiling YES1; details: 100 micromolar inhibitor concentration, 100 is no change
Text: as §1

MELK = MELK (Homo sapiens, UniProt Q14680); assay: Kinase profiling MELK; details: 100 micromolar inhibitor concentration, 100 is no change
Sequence of MELK (Q14680 whole entry, species assumed): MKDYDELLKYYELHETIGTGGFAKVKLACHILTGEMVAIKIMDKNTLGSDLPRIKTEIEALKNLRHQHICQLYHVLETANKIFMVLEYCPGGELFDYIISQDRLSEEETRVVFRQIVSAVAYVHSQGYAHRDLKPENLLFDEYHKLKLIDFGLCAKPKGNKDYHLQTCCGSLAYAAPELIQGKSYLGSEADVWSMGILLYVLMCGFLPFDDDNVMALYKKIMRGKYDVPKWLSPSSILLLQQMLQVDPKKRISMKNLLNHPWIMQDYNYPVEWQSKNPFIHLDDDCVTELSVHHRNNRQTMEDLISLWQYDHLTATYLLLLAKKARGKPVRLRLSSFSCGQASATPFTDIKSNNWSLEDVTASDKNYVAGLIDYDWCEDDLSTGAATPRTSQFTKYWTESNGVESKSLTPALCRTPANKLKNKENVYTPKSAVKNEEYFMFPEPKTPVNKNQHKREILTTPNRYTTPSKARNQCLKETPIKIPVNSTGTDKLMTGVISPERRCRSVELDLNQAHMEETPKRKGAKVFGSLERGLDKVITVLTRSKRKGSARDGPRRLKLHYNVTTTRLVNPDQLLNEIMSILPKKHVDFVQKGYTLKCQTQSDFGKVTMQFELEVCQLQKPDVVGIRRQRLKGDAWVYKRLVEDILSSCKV
Text: as §1

Sequence of MINK1 (Q8N4C8 whole entry, species assumed): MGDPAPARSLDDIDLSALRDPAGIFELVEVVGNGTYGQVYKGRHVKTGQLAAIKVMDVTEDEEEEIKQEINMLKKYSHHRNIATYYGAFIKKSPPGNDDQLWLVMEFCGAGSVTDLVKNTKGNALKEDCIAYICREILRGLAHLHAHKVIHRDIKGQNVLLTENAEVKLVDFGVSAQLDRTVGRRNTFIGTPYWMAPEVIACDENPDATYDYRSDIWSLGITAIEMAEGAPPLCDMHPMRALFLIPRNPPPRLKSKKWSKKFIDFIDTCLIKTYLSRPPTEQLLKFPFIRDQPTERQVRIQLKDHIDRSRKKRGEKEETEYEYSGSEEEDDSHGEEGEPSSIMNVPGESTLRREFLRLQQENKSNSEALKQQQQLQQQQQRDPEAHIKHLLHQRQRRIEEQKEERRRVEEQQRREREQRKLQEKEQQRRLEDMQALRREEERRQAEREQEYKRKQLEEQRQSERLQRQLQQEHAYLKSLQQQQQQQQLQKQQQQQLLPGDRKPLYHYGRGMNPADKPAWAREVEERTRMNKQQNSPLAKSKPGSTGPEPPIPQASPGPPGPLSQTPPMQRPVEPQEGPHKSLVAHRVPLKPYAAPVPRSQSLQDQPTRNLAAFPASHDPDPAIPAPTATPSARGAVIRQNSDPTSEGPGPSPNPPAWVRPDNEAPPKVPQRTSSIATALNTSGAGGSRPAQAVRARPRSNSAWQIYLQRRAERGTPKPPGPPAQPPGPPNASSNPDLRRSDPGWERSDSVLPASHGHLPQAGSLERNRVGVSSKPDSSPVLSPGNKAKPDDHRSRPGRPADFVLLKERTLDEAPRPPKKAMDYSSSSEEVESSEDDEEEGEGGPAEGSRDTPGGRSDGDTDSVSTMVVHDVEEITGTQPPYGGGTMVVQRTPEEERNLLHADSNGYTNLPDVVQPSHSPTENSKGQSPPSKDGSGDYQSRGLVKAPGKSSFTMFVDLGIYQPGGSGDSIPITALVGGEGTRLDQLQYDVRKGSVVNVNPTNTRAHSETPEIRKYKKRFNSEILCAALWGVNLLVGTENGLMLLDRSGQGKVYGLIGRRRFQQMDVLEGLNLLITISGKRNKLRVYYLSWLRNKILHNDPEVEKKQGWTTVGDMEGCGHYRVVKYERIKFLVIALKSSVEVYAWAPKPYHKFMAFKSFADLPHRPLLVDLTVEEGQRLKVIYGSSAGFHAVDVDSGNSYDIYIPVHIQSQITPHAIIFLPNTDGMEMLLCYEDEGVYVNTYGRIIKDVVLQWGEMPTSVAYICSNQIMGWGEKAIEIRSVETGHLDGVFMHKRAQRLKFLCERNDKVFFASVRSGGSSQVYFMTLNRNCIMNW

| Compound | remaining activity at 100 µM (MINK1; read-out: residual kinase activity, MINK1) | remaining activity at 100 µM (TGFBR1; read-out: residual kinase activity, TGFBR1) | remaining activity at 100 µM (MAP4K3; read-out: residual kinase activity, MAP4K3) | residual kinase activity, AMPK (AMPK) | remaining activity at 100 µM (HIPK3; read-out: residual kinase activity, HIPK3) | residual kinase activity, PHK (PHK) | remaining activity at 100 µM (SIK2; read-out: residual kinase activity, SIK2) | remaining activity at 100 µM (MARK1; read-out: residual kinase activity, MARK1) | remaining activity at 100 µM (YES1; read-out: residual kinase activity, YES1) | remaining activity at 100 µM (MELK; read-out: residual kinase activity, MELK) | residual kinase activity, MINK1 (MINK1) | residual kinase activity, TGFBR1 (TGFBR1) | residual kinase activity, MAP4K3 (MAP4K3) | residual kinase activity, HIPK3 (HIPK3) | residual kinase activity, SIK2 (SIK2) | residual kinase activity, MARK1 (MARK1) | residual kinase activity, YES1 (YES1) | residual kinase activity, MELK (MELK) |
| --- | --- | --- | --- | --- | --- | --- | --- | --- | --- | --- | --- | --- | --- | --- | --- | --- | --- | --- |
| CC(=O)Nc1nc2cc(F)ccc2s1 [Compound 03-77] | 65% | 96% | 55% | 73 | 62% | 89 | 64% | 80% | 85% | 67% |  |  |  |  |  |  |  |  |
| O=C(Nc1nc2ccc(O)cc2s1)c1ccncc1 [Compound 08-42] |  |  |  | 61 |  | 58 |  |  |  |  | 37 | 106 | 48 | 90 | 82 | 75 | 79 | 22 |
| O=C(Nc1nc2ccc(O)cc2s1)c1cccnc1 [Compound 08-44] |  |  |  | 48 |  | 43 |  |  |  |  | 19 | 103 | 56 | 45 | 68 | 83 | 74 | 29 |
